Assay results: ChEMBL document CHEMBL1201862, “PubChem BioAssay data set” (2004)
The source made the active and inactive calls.

Key:
[1] = molecular target: T1, Zinc finger protein mex-5 (Caenorhabditis elegans, UniProt Q9XUB2); experiment: potency of MEX-5 RNA-binding blockers – biochemical, C. elegans, fluorescence polarization, dose response (AID 1960)
T1 sequence (Q9XUB2 whole entry): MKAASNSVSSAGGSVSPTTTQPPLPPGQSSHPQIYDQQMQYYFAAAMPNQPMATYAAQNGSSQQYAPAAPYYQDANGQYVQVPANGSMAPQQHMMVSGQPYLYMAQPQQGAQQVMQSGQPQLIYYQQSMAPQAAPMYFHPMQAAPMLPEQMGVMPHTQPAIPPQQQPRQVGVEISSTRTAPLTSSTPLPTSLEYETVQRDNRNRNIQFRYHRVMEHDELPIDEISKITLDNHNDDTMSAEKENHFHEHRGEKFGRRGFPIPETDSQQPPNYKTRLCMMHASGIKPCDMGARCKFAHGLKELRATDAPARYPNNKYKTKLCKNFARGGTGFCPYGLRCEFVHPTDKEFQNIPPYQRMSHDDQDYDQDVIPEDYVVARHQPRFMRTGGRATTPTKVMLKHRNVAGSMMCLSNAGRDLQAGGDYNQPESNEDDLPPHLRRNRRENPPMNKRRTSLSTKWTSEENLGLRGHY

[2] = HIV-1 Vif–A3G interaction blockers – biochemical, TR-FRET, GST-Vif 1-94, biotin-A3G peptide, dose response retest, primary screen (AID 1117319); format: functional;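 further: TR-FRET signal of purified GST-Vif binding a biotinylated A3G peptide; inhibitors lower the FRET signal by blocking Vif and A3G binding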
[3] = molecular target: T2, RNA-binding protein pos-1 (Caenorhabditis elegans, UniProt G5EF15); experiment: disruptors of C. elegans POS-1 RNA interaction – biochemical, fluorescence polarization, dose response (AID 1964);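 further: purified POS-1 fused to maltose binding protein made in E. coli; potency of compounds blocking POS-1 binding to fluorescent RNA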
T2 sequence (G5EF15 whole entry): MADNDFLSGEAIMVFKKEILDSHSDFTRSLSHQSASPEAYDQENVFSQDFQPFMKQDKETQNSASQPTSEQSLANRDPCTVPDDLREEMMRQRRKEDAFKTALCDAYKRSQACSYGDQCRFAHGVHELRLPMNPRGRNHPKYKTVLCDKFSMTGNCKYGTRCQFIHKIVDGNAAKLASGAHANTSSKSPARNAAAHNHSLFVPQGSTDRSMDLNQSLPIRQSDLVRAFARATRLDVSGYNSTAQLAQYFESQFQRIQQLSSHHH

[4] = molecular target: Voltage-dependent T-type calcium channel subunit alpha-1H (Homo sapiens, UniProt O95180); format: functional;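 further: channel activity triggered by adding a high calcium stimulation buffer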
Sequence of Voltage-dependent T-type calcium channel subunit alpha-1H (O95180 whole entry): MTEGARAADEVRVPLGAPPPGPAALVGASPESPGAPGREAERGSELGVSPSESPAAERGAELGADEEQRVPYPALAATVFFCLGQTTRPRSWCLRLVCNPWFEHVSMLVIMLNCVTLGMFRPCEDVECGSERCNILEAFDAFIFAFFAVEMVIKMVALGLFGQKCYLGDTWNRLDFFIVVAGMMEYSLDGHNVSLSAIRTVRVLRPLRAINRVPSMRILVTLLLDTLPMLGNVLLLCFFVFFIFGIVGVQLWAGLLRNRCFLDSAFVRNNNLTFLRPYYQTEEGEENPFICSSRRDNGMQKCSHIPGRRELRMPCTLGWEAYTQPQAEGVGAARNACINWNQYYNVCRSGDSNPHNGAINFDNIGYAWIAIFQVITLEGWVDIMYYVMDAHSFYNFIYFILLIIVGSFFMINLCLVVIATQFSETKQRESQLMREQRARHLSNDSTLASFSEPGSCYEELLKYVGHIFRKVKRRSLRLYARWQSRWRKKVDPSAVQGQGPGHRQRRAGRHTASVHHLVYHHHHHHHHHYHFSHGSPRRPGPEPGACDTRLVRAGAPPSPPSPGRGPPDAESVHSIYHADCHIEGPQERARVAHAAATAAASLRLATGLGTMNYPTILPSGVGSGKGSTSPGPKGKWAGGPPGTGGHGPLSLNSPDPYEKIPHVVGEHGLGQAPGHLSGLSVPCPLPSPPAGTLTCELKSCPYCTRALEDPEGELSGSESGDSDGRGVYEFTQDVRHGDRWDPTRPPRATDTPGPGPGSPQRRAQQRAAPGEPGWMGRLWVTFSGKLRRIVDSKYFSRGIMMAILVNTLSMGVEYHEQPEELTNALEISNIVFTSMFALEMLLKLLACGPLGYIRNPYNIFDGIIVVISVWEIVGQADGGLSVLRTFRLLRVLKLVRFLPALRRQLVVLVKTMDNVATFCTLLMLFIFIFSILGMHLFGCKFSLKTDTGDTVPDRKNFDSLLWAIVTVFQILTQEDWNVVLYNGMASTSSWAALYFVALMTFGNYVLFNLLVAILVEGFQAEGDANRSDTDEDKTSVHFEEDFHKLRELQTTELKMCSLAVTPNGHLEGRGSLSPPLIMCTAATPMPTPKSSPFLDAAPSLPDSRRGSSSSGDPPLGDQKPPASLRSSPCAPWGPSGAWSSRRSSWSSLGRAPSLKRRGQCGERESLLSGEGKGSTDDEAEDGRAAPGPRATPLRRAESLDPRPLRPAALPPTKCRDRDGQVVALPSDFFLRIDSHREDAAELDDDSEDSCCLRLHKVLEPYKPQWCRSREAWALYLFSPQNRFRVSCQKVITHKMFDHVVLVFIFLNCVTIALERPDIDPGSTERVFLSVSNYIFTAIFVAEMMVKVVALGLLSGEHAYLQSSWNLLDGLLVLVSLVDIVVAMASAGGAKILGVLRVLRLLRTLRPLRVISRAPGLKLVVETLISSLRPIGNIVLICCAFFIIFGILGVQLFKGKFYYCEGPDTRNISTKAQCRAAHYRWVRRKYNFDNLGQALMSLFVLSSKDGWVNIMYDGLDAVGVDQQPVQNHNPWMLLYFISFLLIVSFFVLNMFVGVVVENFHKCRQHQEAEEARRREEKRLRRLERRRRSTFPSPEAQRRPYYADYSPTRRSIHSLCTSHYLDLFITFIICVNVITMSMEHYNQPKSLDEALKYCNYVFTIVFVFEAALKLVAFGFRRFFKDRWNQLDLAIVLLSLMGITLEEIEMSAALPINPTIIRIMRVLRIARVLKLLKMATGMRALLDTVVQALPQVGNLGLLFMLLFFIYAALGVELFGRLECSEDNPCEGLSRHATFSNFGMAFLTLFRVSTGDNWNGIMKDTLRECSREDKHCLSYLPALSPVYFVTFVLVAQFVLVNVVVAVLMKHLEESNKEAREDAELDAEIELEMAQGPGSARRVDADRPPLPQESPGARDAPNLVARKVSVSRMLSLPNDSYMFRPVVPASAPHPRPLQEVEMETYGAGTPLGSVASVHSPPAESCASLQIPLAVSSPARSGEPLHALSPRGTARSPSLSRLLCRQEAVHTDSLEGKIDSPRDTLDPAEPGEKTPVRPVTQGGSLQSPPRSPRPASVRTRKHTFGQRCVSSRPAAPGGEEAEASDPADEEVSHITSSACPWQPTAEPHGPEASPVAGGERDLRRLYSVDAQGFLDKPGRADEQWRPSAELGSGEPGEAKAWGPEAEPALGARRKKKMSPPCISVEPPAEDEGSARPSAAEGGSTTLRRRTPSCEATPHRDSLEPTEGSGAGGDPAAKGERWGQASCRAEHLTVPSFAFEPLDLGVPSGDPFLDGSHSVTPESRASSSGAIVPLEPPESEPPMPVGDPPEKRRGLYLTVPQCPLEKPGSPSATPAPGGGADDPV

[5] = Vero E6 cell cytotoxicity, dose response, cytotoxicity control for non-replicating M. tuberculosis project, secondary assay (AID 492998); format: functional, VeroE6; settings: Vero C1008
[6] = cells; format: functional
[7] = molecular target: T3, Polyadenylate-binding protein 1 (Homo sapiens, UniProt P11940); experiment: MLLE domain peptide-binding blockers, IC50 – biochemical, fluorescence polarization, FITC-PAM2 peptide, dose response (AID 602259); format: functional; settings: read-out: IC50_Mean
T3 sequence (P11940 whole entry, the tested form may be a part): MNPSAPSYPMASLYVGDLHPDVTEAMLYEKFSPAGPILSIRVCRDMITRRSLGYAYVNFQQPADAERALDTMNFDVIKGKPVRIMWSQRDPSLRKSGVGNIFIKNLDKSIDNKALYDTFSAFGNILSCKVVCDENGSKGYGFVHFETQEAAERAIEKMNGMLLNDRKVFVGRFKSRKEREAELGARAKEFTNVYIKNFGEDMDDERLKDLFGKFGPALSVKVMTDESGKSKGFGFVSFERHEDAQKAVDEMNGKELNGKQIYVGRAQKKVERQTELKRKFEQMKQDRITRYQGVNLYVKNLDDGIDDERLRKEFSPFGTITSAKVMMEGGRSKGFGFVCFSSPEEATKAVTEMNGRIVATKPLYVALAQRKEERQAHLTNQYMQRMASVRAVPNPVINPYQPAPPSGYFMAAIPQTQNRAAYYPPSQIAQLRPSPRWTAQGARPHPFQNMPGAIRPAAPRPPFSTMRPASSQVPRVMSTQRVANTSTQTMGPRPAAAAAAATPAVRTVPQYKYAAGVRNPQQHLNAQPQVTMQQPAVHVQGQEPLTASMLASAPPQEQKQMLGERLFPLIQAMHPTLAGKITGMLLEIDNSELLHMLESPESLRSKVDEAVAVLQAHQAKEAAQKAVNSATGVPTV

[8] = test system: Vero; experiment: cells; format: functional; settings: Chlorocebus sabaeus
[9] = molecular target: T3, Polyadenylate-binding protein 1; experiment: MLLE binding blockers, Cy5 peptide tracer – biochemical, fluorescence polarization, Cy5-PAM2 peptide, secondary, miRNA deadenylation inhibitor project, dose response (AID 602260); format: functional; settings: read-out: IC50_Mean
[10] = THP-1 cell cytotoxicity, dose response, cytotoxicity control for non-replicating M. tuberculosis project (AID 489025); format: functional
[11] = molecular target: T4, Short transient receptor potential channel 4 (Mus musculus, UniProt Q9QUQ5); experiment: calcium entry via TRPC4 opening agents – cell-based, HEK293 TRPC4/mu-opioid, Fluo-4 calcium, dose response (AID 434937); format: functional
T4 sequence (Q9QUQ5 whole entry): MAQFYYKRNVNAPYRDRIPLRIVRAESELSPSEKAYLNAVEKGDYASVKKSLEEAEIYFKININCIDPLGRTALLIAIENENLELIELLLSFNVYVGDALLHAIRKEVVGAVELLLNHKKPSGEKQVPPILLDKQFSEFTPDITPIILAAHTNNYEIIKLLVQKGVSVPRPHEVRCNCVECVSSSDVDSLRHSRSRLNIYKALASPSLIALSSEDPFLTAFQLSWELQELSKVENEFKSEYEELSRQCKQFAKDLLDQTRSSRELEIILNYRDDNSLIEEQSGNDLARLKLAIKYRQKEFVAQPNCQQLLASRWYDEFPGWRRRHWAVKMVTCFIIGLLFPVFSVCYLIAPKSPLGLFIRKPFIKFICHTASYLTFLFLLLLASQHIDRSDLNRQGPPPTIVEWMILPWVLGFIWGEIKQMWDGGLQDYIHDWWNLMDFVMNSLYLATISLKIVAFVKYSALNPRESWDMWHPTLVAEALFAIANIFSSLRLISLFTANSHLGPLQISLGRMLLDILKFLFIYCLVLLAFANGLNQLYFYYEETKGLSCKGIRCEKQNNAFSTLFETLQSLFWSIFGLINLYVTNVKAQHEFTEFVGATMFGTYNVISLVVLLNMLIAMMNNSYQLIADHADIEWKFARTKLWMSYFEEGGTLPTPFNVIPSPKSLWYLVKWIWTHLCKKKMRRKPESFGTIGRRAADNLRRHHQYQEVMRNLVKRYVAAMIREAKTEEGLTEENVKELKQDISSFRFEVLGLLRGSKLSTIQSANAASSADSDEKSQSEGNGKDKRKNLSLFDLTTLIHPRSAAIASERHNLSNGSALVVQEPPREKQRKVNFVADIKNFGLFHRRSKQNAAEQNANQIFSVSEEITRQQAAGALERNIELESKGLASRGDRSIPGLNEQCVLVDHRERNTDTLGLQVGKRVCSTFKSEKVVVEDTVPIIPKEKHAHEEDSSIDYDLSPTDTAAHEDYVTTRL

[12] = molecular target: T5, Heat shock factor protein 1 (Mus musculus, UniProt P38532); experiment: decrease of HSF1-responsive luciferase luminescence – cell-based, NIH3T3, dose retest, confirmation (AID 2382); format: functional;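 further: NIH3T3 fibroblasts with HSF1-driven luciferase reporter stressed by proteasome inhibitor MG132; luminescence from HSF1-driven luciferase expression after 8 hours of MG132 stress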
T5 sequence (P38532 whole entry): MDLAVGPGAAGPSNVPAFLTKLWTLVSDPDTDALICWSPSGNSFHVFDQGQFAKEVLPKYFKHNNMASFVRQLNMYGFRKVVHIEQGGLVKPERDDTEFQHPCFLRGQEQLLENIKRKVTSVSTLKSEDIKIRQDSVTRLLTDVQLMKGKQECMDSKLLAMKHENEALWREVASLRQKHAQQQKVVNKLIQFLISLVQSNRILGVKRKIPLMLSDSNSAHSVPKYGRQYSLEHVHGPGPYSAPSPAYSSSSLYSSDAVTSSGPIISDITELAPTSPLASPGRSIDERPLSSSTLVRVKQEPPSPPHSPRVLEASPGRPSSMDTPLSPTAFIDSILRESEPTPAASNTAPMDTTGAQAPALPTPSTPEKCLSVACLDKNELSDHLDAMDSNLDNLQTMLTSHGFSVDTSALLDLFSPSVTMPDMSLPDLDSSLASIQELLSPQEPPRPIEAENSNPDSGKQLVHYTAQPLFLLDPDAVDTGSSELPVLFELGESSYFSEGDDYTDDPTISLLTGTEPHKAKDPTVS

[13] = molecular target: T6, Estrogen receptor beta (Homo sapiens, UniProt Q92731);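 further: recombinant ER-beta bound to coactivator SRC1 peptide in presence of estradiol agonist; inhibitors block coactivator peptide binding and lower the FRET signal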
T6 sequence (Q92731 whole entry): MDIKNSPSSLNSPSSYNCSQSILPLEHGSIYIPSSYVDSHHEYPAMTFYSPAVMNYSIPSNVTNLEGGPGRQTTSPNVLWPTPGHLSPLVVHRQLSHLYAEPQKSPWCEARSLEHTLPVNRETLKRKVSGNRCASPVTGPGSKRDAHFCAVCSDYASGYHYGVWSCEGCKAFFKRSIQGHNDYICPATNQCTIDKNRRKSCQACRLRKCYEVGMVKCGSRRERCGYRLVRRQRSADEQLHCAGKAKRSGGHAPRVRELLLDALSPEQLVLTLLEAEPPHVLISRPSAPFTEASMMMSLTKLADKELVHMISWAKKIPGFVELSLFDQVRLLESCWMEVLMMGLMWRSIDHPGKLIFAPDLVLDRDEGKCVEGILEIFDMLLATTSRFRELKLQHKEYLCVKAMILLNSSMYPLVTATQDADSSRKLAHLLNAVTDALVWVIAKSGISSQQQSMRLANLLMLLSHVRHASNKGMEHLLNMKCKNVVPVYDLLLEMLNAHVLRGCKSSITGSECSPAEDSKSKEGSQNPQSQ

[14] = molecular target: T6, Estrogen receptor beta; experiment: blockers of SRC-3 recruitment to ERβ – biochemical, ELISA, streptavidin-HRP readout, orthogonal assay, confirmation (AID 1060)
[15] = HepG2 cell cytotoxicity, dose response, cytotoxicity control for non-replicating M. tuberculosis project (AID 489018); format: functional; settings: Mycobacterium tuberculosis
[16] = cells; format: functional, cell-based
[17] = cells; format: functional, cell-based; remark: listed apart in the source
[18] = molecular target: T7, Calpain-2 catalytic subunit (Sus scrofa, UniProt P43367); experiment: m-calpain protease blockers, concentration series – biochemical, fluorogenic peptide substrate, dose response (AID 1420); format: functional
T7 sequence (P43367 whole entry): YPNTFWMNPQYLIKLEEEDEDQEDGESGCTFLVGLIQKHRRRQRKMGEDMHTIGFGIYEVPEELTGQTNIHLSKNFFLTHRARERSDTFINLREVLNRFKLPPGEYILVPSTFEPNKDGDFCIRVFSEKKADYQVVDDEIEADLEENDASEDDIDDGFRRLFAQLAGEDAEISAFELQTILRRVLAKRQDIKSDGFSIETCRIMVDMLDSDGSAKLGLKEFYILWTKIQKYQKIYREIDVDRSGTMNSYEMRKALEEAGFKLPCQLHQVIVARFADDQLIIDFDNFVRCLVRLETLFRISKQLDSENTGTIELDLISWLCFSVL

[19] = test system: INS1; experiment: INS-1E survival protection against cytokine death – cell-based, luminescence, retest, dose response (AID 449756); format: functional; settings: Rattus norvegicus;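 further: cell death triggered by IL-1 beta plus TNF-alpha plus IFN-gamma mixture; protective hits raise ATP signal compared with cytokine alone wells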

Question: For `CCOC(=O)C1Nc2ccc(Br)cc2C2C=CCC12` (centres undefined), which EC50 [1] is on record?
Answer: The EC50 was 46 µM (active).

Question: And the IC50 [2]?
Answer: Its IC50 is > 100 µM (active).

Question: What about the EC50 [3] of the same molecule?
Answer: Its EC50 is > 300 µM (not active).

Question: For `CCC(=O)N1CCN(c2ccc(Cl)cc2NC(=O)Cc2ccccc2)CC1`, which EC50 [4] is on record?
Answer: The EC50 was 10.1 µM (active).

Question: Which results are given for `CCN1CSC(=S)N(Cc2ccc(OC)cc2)C1`?
Answer: CC50 [5]: 6.33 µM (active); IC50 [6]: 11.8 µM (active); IC50 [7]: > 66 µM (inactive); CC50 [8]: 12.1 µM (active); IC50 [9]: > 66 µM (inactive); CC50 [10]: 9.8 µM (active)

Question: For `Cc1ccc(OCC(=O)N(C)CCc2ccccn2)cc1`, which EC50 [11] is on record?
Answer: The EC50 was 6.68 µM (active).

Question: With `Cc1cc2ncn(CCCCOc3ccccc3)c2cc1C` as the molecule, how does the EC50 [4] read?
Answer: The EC50 was 7.27 µM (active).

Question: What does the source list for `CC(C)(C)c1ccccc1NC(=O)NC1CCN(Cc2c(F)cccc2Cl)CC1`?
Answer: EC50 [11]: 2.11 µM (active); EC50 [12]: > 195 µM (not active)

Question: With `CCCCN(CCCC)S(=O)(=O)c1ccc(C(=O)Nc2nnc(CSC)o2)cc1` as the molecule, how does the EC50 [4] read?
Answer: The EC50 was 2.82 µM (active).

Question: For `Cc1noc(C)c1CCC(=O)NC1CCCN(Cc2ccc(CC(C)C)cc2)C1` (centres undefined), which EC50 [11] is on record?
Answer: Its EC50 is 3.76 µM (active).

Question: For `Cc1nn(Cc2ccc(Cl)c(Cl)c2)c(C)c1NC(=O)c1cc(CC(C)C)on1`, which EC50 [4] is on record?
Answer: Its EC50 is 1.28 µM (active).

Question: For `CCOC(=O)Cc1csc(NC(=O)Cc2cccs2)n1`, which IC50 [13] is on record?
Answer: Its IC50 is 5.81 µM (active).

Question: What about the IC50 [14] of the same molecule?
Answer: Its IC50 is 3.22 µM (not active).

Question: With `CN(C)C(CNC(=O)CCS(=O)(=O)c1ccccc1)c1ccccc1` (centres undefined) as the molecule, how does the EC50 [11] read?
Answer: Its EC50 is 0.376 µM (active).

Question: With `COc1ccc(C(=O)N/N=C(\c2ccccc2)c2ccccn2)cc1` as the molecule, how does the CC50 [5] read?
Answer: Its CC50 is 2.39 µM (active).

Question: What about the IC50 [6] of the same molecule?
Answer: Its IC50 is 8.09 µM (active).

Question: And the CC50 [15]?
Answer: The CC50 was 9.02 µM (active).

Question: What about the EC50 [16] of the same molecule?
Answer: Its EC50 is 38.6 µM (active).

Question: What about the EC50 [17] of the same molecule?
Answer: The EC50 was 10.3 µM (active).

Question: And the CC50 [8]?
Answer: The CC50 was 3.02 µM (active).

Question: What about the CC50 [10] of the same molecule?
Answer: Its CC50 is 0.517 µM (active).

Question: And the IC50 [18]?
Answer: The IC50 was > 50 µM (not active).

Question: And the AC50 [19]?
Answer: Its AC50 is 1.18 µM (active).
